{
  "source": "PubChem BioAssay (NCI)",
  "assay_in_all_cases": "growth of human tumour cells (NCI), 48 h",
  "key": {"786-0 renal": {"tested_on": "786-0 renal"}, "ACHN renal": {"tested_on": "ACHN renal"}, "CAKI-1 renal": {"tested_on": "CAKI-1 renal"}, "COLO 205 colon": {"tested_on": "COLO 205 colon"}, "HS 578T breast": {"tested_on": "HS 578T breast"}, "MDA-MB-231 breast": {"tested_on": "MDA-MB-231 breast"}, "MDA-MB-435": {"tested_on": "MDA-MB-435"}, "MOLT-4 leukemia": {"tested_on": "MOLT-4 leukemia"}, "OVCAR-3 ovarian": {"tested_on": "OVCAR-3 ovarian"}, "SF-268 CNS": {"tested_on": "SF-268 CNS"}, "SF-539 CNS": {"tested_on": "SF-539 CNS"}},
  "note": "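Briefly, cells in 96-well plates were exposed to five compound concentrations for 48 h, and endpoints were estimated by linear interpolation. The concentration for full growth arrest is given as TGI.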",
  "data": [
    {"smiles": "N#CC(N)c1ccc(OCCCCCCCCCCOc2ccc(C(N)C#N)cc2)cc1", "note": "(stereo unspecified)", "values": [
      {"measurement": "TGI", "setting": "786-0 renal", "result": "> 100", "unit": "µM"},
      {"measurement": "TGI", "setting": "ACHN renal", "result": "> 100", "unit": "µM"},
      {"measurement": "TGI", "setting": "CAKI-1 renal", "result": "> 100", "unit": "µM"},
      {"measurement": "TGI", "setting": "COLO 205 colon", "result": "> 100", "unit": "µM"},
      {"measurement": "TGI", "setting": "HS 578T breast", "result": "> 100", "unit": "µM"},
      {"measurement": "TGI", "setting": "MDA-MB-231 breast", "result": "> 100", "unit": "µM"},
      {"measurement": "TGI", "setting": "MDA-MB-435", "result": "> 100", "unit": "µM"},
      {"measurement": "TGI", "setting": "MOLT-4 leukemia", "result": "> 100", "unit": "µM"},
      {"measurement": "TGI", "setting": "OVCAR-3 ovarian", "result": "> 100", "unit": "µM"},
      {"measurement": "TGI", "setting": "SF-268 CNS", "result": "> 100", "unit": "µM"},
      {"measurement": "TGI", "setting": "SF-539 CNS", "result": "> 100", "unit": "µM"}
    ]},
    {"smiles": "O=C(NC(Cl)(C(F)(F)F)C(F)(F)F)c1ccc(F)cc1", "values": [
      {"measurement": "TGI", "setting": "786-0 renal", "result": "> 100", "unit": "µM"},
      {"measurement": "TGI", "setting": "ACHN renal", "result": "> 100", "unit": "µM"},
      {"measurement": "TGI", "setting": "CAKI-1 renal", "result": "> 100", "unit": "µM"},
      {"measurement": "TGI", "setting": "COLO 205 colon", "result": "> 100", "unit": "µM"},
      {"measurement": "TGI", "setting": "HS 578T breast", "result": "> 100", "unit": "µM"},
      {"measurement": "TGI", "setting": "MDA-MB-231 breast", "result": "> 100", "unit": "µM"},
      {"measurement": "TGI", "setting": "MDA-MB-435", "result": "> 100", "unit": "µM"},
      {"measurement": "TGI", "setting": "MOLT-4 leukemia", "result": "> 100", "unit": "µM"},
      {"measurement": "TGI", "setting": "OVCAR-3 ovarian", "result": "> 100", "unit": "µM"},
      {"measurement": "TGI", "setting": "SF-268 CNS", "result": "> 100", "unit": "µM"},
      {"measurement": "TGI", "setting": "SF-539 CNS", "result": "> 100", "unit": "µM"}
    ]},
    {"smiles": "CCCCCCCCCCCCCCCCCCNc1ccn(C2OC(COP(=O)(O)OCC3OC(n4cc(C)c(=O)[nH]c4=O)CC3F)C(O)C2O)c(=O)n1", "note": "(stereo unspecified)", "values": [
      {"measurement": "TGI", "setting": "786-0 renal", "result": 9.52, "unit": "µM"},
      {"measurement": "TGI", "setting": "ACHN renal", "result": "> 57.1", "unit": "µM"},
      {"measurement": "TGI", "setting": "CAKI-1 renal", "result": 16.8, "unit": "µM"},
      {"measurement": "TGI", "setting": "COLO 205 colon", "result": 9.53, "unit": "µM"},
      {"measurement": "TGI", "setting": "HS 578T breast", "result": 50.3, "unit": "µM"},
      {"measurement": "TGI", "setting": "MDA-MB-231 breast", "result": 48.7, "unit": "µM"},
      {"measurement": "TGI", "setting": "MDA-MB-435", "result": 38.9, "unit": "µM"},
      {"measurement": "TGI", "setting": "MOLT-4 leukemia", "result": 15.4, "unit": "µM"},
      {"measurement": "TGI", "setting": "OVCAR-3 ovarian", "result": 50.5, "unit": "µM"},
      {"measurement": "TGI", "setting": "SF-268 CNS", "result": 19.5, "unit": "µM"},
      {"measurement": "TGI", "setting": "SF-539 CNS", "result": 19.9, "unit": "µM"}
    ]},
    {"smiles": "C[Si](C)(C)C#Cc1cc(-c2nc3ccccc3s2)ccc1N", "values": [
      {"measurement": "TGI", "setting": "786-0 renal", "result": 30.7, "unit": "µM"},
      {"measurement": "TGI", "setting": "ACHN renal", "result": 29.1, "unit": "µM"},
      {"measurement": "TGI", "setting": "CAKI-1 renal", "result": 31, "unit": "µM"},
      {"measurement": "TGI", "setting": "COLO 205 colon", "result": 29.5, "unit": "µM"},
      {"measurement": "TGI", "setting": "HS 578T breast", "result": 51, "unit": "µM"},
      {"measurement": "TGI", "setting": "MDA-MB-231 breast", "result": 38, "unit": "µM"},
      {"measurement": "TGI", "setting": "MDA-MB-435", "result": 34.1, "unit": "µM"},
      {"measurement": "TGI", "setting": "MOLT-4 leukemia", "result": 97.4, "unit": "µM"},
      {"measurement": "TGI", "setting": "OVCAR-3 ovarian", "result": 39.2, "unit": "µM"},
      {"measurement": "TGI", "setting": "SF-268 CNS", "result": 32.1, "unit": "µM"},
      {"measurement": "TGI", "setting": "SF-539 CNS", "result": 34.5, "unit": "µM"}
    ]},
    {"smiles": "CC1(C)CC(O)C2=C(O1)C(=O)c1ncccc1C2=O", "note": "(stereo unspecified)", "values": [
      {"measurement": "TGI", "setting": "786-0 renal", "result": 3.62, "unit": "µM"},
      {"measurement": "TGI", "setting": "ACHN renal", "result": 11.5, "unit": "µM"},
      {"measurement": "TGI", "setting": "CAKI-1 renal", "result": 4.45, "unit": "µM"},
      {"measurement": "TGI", "setting": "COLO 205 colon", "result": 4.89, "unit": "µM"},
      {"measurement": "TGI", "setting": "HS 578T breast", "result": 6.56, "unit": "µM"},
      {"measurement": "TGI", "setting": "MDA-MB-231 breast", "result": 5.92, "unit": "µM"},
      {"measurement": "TGI", "setting": "MDA-MB-435", "result": 3.3, "unit": "µM"},
      {"measurement": "TGI", "setting": "MOLT-4 leukemia", "result": 4.55, "unit": "µM"},
      {"measurement": "TGI", "setting": "OVCAR-3 ovarian", "result": 5.4, "unit": "µM"},
      {"measurement": "TGI", "setting": "SF-268 CNS", "result": 4.85, "unit": "µM"},
      {"measurement": "TGI", "setting": "SF-539 CNS", "result": 3.28, "unit": "µM"}
    ]},
    {"smiles": "CCOP(=O)(OCC)C(C)(C)N(C)/C(F)=N/C(F)(F)F", "values": [
      {"measurement": "TGI", "setting": "786-0 renal", "result": "> 100", "unit": "µM"},
      {"measurement": "TGI", "setting": "ACHN renal", "result": "> 100", "unit": "µM"},
      {"measurement": "TGI", "setting": "CAKI-1 renal", "result": "> 100", "unit": "µM"},
      {"measurement": "TGI", "setting": "COLO 205 colon", "result": "> 100", "unit": "µM"},
      {"measurement": "TGI", "setting": "HS 578T breast", "result": "> 100", "unit": "µM"},
      {"measurement": "TGI", "setting": "MDA-MB-231 breast", "result": "> 100", "unit": "µM"},
      {"measurement": "TGI", "setting": "MDA-MB-435", "result": "> 100", "unit": "µM"},
      {"measurement": "TGI", "setting": "MOLT-4 leukemia", "result": "> 100", "unit": "µM"},
      {"measurement": "TGI", "setting": "OVCAR-3 ovarian", "result": "> 100", "unit": "µM"},
      {"measurement": "TGI", "setting": "SF-268 CNS", "result": "> 100", "unit": "µM"},
      {"measurement": "TGI", "setting": "SF-539 CNS", "result": "> 100", "unit": "µM"}
    ]}
  ]
}
